From patent US5616604A, “Aminopyrrolizinone analogues for anti-inflammation and analgesia (II)” (priority 1996, dated 1997)

Key:
[1] = system: mouse writhing induced by acetic acid; assay: inhibition of acetic acid-induced writhe in mice; format: in vivo; details: oral, female mice, dose/LD50: SFZ-47 1/15, SFZ-58 1/10, ibuprofen 1/5, indomethacin 1/4; for Numb. of writhing (x ± SD): 0.7% acetic acid i.p. 1 h later, 20 min observation, N.S. 17.0 ± 6.8; for Rate of inhibition (%): writhing vs normal saline
Protocol: The influence of SFZ-47, 58 on inhibition of acetic acid-induces writhe.
SFZ-47 and SFZ-58 were suspended in 0.5% carboxymethylcellulose (CMC) and administered per os. to female mice of weight 18-24 g. 1 hour later, 0.2 ml of a 0.7% solution of acetic acid was injected to mouse by intraperironeally. The animals were observed during the next 20 min. for writhe.

gastric mucosa of rats = assay: effects on gastric mucosa of rats (ulcer index); format: in vivo, rat; details: n = 5, SFZ-47 400 mg/kg, SFZ-58 300 mg/kg, ibuprofen 200 mg/kg, indomethacin 10 mg/kg
Description: Effects of SFZ-47 and SFZ-58 on gastric mucosa of rats

[2] = system: carrageenin-induced paw edema; assay: inhibition of carrageenin-induced paw edema in rat; format: in vivo; details: oral, male rats, dose/LD50: SFZ-47 1/15, SFZ-58 1/10, ibuprofen 1/5, indomethacin 1/4; for carrageenin-induced paw edema, 1 hour: N.S. 0.40 ± 0.00; for carrageenin-induced paw edema, 2 hours: N.S. 0.78 ± 0.09; for carrageenin-induced paw edema, 3 hours: N.S. 0.75 ± 0.09; for carrageenin-induced paw edema, 4 hours: N.S. 0.75 ± 0.05; for carrageenin-induced paw edema, 5 hours: N.S. 0.76 ± 0.09
Protocol: The influence of SFZ-47, 58 on inhibition of Carrageenin-Induced Paw Edema in Rat.
The test agent was administered by oral liquid to male rats of weight 140-180 g. 0.05 ml of 1% carrageenin injected into the pad of the right hind paw 1 hour later. The perimeter of the rat ankles were measured each hour after compound administration.

splanchnic vascular bed = details: prior art, in words; cited from earlier work
cerebral circulation = details: prior art, cited from earlier work

CC(C)Cc1ccc(C(C)C(=O)O)cc1 (stereo not shown) [Ibuprofen]
Numb. of writhing (x ± SD) [1]: 4.3 ± 3.9 | Rate of inhibition (%) [1]: 75% | Ulcer index (gastric mucosa of rats): 13.3 ± 4.2 mm^2 | carrageenin-induced paw edema, 1 hour [2]: 0.29 ± 0.06 | carrageenin-induced paw edema, 2 hours [2]: 0.41 ± 0.11 | carrageenin-induced paw edema, 3 hours [2]: 0.52 ± 0.00 | carrageenin-induced paw edema, 4 hours [2]: 0.51 ± 0.00 | carrageenin-induced paw edema, 5 hours [2]: 0.47 ± 0.10

COc1ccc2c(c1)c(CC(=O)O)c(C)n2C(=O)c1ccc(Cl)cc1 [Indomethacin]
Numb. of writhing (x ± SD) [1]: 2.7 ± 1.5 | Rate of inhibition (%) [1]: 84% | Ulcer index (gastric mucosa of rats): 14.0 ± 6.9 mm^2 | blood flow in the splanchnic vascular bed (splanchnic vascular bed): diminishes blood flow in the splanchnic vascular bed | carrageenin-induced paw edema, 1 hour [2]: 0.21 ± 0.18 | carrageenin-induced paw edema, 2 hours [2]: 0.33 ± 0.08 | carrageenin-induced paw edema, 3 hours [2]: 0.45 ± 0.08 | carrageenin-induced paw edema, 4 hours [2]: 0.43 ± 0.13 | carrageenin-induced paw edema, 5 hours [2]: 0.43 ± 0.13 | cerebral blood flow response to hypercapnia (cerebral circulation; in words): abolishing cerebral blood flow response to hypercapnia | decrease of cerebral blood flow (cerebral circulation): 25-35%
